Measured values: patent US6576239B1, “Angiogenic homing molecules and conjugates derived therefrom” (The Burnham Institute, priority 1996, dated 2003)
Like-named read-outs stand apart in the source and are kept apart here. No end group written: not given here.

Experiments:
breast tumor [1] = assay: Competition of phage tumor homing by coinjection of free peptide; format: in vivo, mice; conditions: for effect of coinjected free peptide on homing of CDCRGDCFC phage: coinjection with CDCRGDCFC (RGD) phage; for effect of co-injected peptide on accumulation of NGR phage in breast carcinoma xenografts: phage expressing CNGRCVSGCAGRC, NGRAHA or CVLNGRMEC
Text: Selective homing can be distinguished from nonspecific binding, however, by detecting differences in the abilities of different individual phage to home to a tumor. For example, selective homing can be identified by combining a putative tumor homing molecule such as a peptide expressed on a phage with a large excess of non-infective phage or with about a five-fold excess of phage expressing unselected peptides, injecting the mixture into a subject and collecting a sample of the tumor. […] In addition, nonspecific localization can be distinguished from selective homing by performing competition experiments using, for example, phage expressing a putative tumor homing peptide in combination with an excess amount of the “free” peptide (Example IV).
The various peptides, including RGD- and NGR-containing peptides, generally were bound to the tumor blood vessels. The minimal cyclic NGR peptide, CNGRC (SEQ ID NO: 8), was synthesized based on the CNGRCVSGCAGRC (SEQ ID NO: 3) sequence. When the CNGRC (SEQ ID NO: 8) peptide was co-injected with phage expressing either CNGRCVSGCAGRC (SEQ ID NO: 3), NGRAHA (SEQ ID NO: 6) or CVLNGRMEC (SEQ ID NO: 7), accumulation of the phage in the breast carcinoma xenografts was inhibited. […] (SEQ ID NO: 1) peptide, even when administered in amounts up to ten times higher than those that inhibited the homing of the NGR phage. In comparison, the […]

[2] = tested on: Human 435 breast carcinoma tumor; assay: In vivo targeting of phage expressing a peptide to a tumor (phage quantitated in organs); set-up: species or system mice; conditions: mouse melanoma, human Kaposi's sarcoma xenograft
Protocol: Human 435 breast carcinoma cells were inoculated into the mammary fat pad of nude mice. When the tumors attained a diameter of about 1 cm, phage expressing a specific RGD-containing peptide were administered to the tumor bearing mouse. Similar results
1×10^9 phage expressing the RGD-containing peptide, […] (SEQ ID NO: 1; see, Koivunen et al., supra, 1995) or control (insertless) phage were injected intravenously (iv) into the mice and allowed to circulate for 4 min. The mice then were snap frozen or perfused through the heart while under anesthesia, and various organs, including tumor, brain and kidney, were removed and the phage present in the organs was quantitated (see U.S. Pat. No. 5,622,699; Pasqualini and Ruoslahti, supra, 1996).
Approximately 2-3 times more phage expressing the […] (SEQ ID NO: 1) peptide were detected in the breast tumor as compared to brain and kidney, indicating the […] […] In a parallel study, unselected phage, which express various, diverse peptides, were injected into tumor-bearing mice and various organs were examined for the presence of phage. Far more phage were present in kidney and, to a lesser extent, brain, as compared to the tumor. Thus, the 80-fold more RGD-expressing phage than unselected phage concentrated in the tumor.

B16B15b mouse melanoma = assay: In vivo panning against a melanoma tumor; set-up: species or system mice; conditions: 89 cloned phage recovered from B16B15b tumors after three rounds
Protocol: Tumors were transplanted into mice as described in Examples II and III, below. A mixture of phage libraries containing 1×10^9 to 1×10^14 TU was diluted in 200 μl DMEM and injected into the tail vein of anesthetized mice (AVERTIN (0.015 ml/g); see U.S. Pat. No. 5,622,699; Pasqualini and Ruoslahti, supra, 1996). After 1-4 minutes, mice were snap frozen in liquid nitrogen. To recover the phage, carcasses were partially thawed at room temperature for 1 hr, tumors and control orqans were collected and weighed, then were ground in 1 ml DMEM-PI (DMEM containing protease inhibitors (PI); phenylmethylsulfonyl fluoride (PMSF; 1 mM), aprotinin (20 μg/ml), leupeptin (1 μg/ml)).
Individual colonies containing phage recovered from a tumor were grown for 16 hr in 5 ml NZY/tet. The bacterial cultures obtained from the individual colonies were pooled and the phage were purified and re-injected into mice as described above for a second round of in vivo panning. In general, a third round of panning also was performed. Phage DNA was purified from individual bacterial colonies obtained from the final round of in vivo panning and the DNA sequences encoding the peptides expressed by selected phage were determined (see Koivunen et al., supra, 1994b).
Mice bearing a melanoma were produced by implantation of B16B15b mouse melanoma cells, which produce highly vascularized tumors. […]

[3] = tested on: MDA-MB-435 breast carcinoma; assay: Tumor therapy of breast tumor bearing mice with doxorubicin/peptide conjugates; format: in vivo, BALB/c nu/nu mice; conditions: for gross examination of tumors (skin ulceration, tumor necrosis): 5 μg doxorubicin equivalent; for effect on tumor growth: relative to treatment with the vehicle, alone
Protocol: Female 2-month old BALB/c nu/nu mice (Harlan Sprague Dawley; San Diego Calif.) were used for these studies and were cared for according to the Burnham Institute animal facility guidelines. MDA-MB-435 breast carcinoma cells (Price et al., Cancer Res. 50:717-721 (1993)) were injected in the mammary fat pad of the nude mice and tumor growth was monitored (Pasqualini et al., supra, 1997). Tumors were allowed to grow to a size of about 1 cm^3 (about 5% of the mouse's body weight) before starting the treatment experiments, except for the toxicity experiments as discussed below.
Weekly doxorubicin/peptide conjugate or control treatments (5 μg/mouse/week of doxorubicin-equivalent) were administered intravenously. In some experiments, as indicated, a dose of 30 μg/mouse was administered every 3 weeks. Treatment with doxorubicin, alone, is referred to as “dox control” and treatment with doxorubicin conjugated to the non-tumor homing control peptide, […] As an additional control, in some experiments the tumor homing peptide was mixed with doxorubicin, without linking, and the mixture was administered to tumor bearing mice. Such treatment produced results that were not statistically different from those obtained with the above described dox controls.
Mice were anesthetized with a tribromoethanol-based anesthetic mixture (AVERTIN; Papaioannou and Fox, Lab. Anim. 43:189-192 (1993)) before each treatment. Anesthetization facilitated the tail vein injections (final volume, 200 μl) and allowed precise serial three dimensional tumor size measurements. Tumor volume calculations were based on the equation for the volume of an ovaloid: V= 4/3 (Πabc), where a, b, and c are ½ of the measured diameters in each of the three dimensions.

[4] = tested on: MDA-MB-435 human breast carcinoma cells; format: cell-based; conditions: for cell killing: agents not removed after 30 min, 24 hr
Protocol: MDA-MB-435 human breast carcinoma cells were plated at 1×10^5 cells/well in 96 well plates. Cells were incubated with increasing amounts of doxorubicin, the doxorubicin/[…] (SEQ ID NO: 1) conjugate, or the doxorubicin/GACVFSIAHECGA (SEQ ID NO: 19; control) conjugate (0.1 to 10 μg/well of doxorubicin-equivalent) for either 30 min or overnight. […] The number of surviving cells was determined at 24hours with crystal violet staining (see Koivunen et al., supra, 1994).

[5] = Acute toxicity in mice bearing extremely large tumors
breast tumor [6] = assay: Viability of tumor cells obtained from tumors of treated mice; format: in vivo; conditions: 30 μg equivalent iv, tumors removed after five days, cells counted 24 hours and 7 days after plating
Protocol: In addition, the viability of tumor cells obtained from tumors of mice treated with a tumor homing peptide/doxorubicin conjugate was compared to that of tumors from mice treated with free doxorubicin. In these experiments, breast tumor bearing mice were size matched with regard to the tumors, then treated intravenously with 30 μg equivalent of doxorubicin/CDCRGDCFC (SEQ ID NO: 1) or of free doxorubicin. Five days after treatment, the mice were euthanized and the tumors were removed. The tumor pairs were weighed and ground and the cell suspensions were plated (2 g tumor tissue per 150 mm plate).
Cell numbers were determined at 24 hours and 7 days after plating. Viability of tumor cells from the tumors of mice receiving the doxorubicin/CDCRGDCFC (SEQ ID NO: 1) conjugate was about 3 fold less than cells from tumors of mice treated with the free doxorubicin.

human αv-integrins = conditions: cited from earlier work
[7] = 5 μg/mouse/week doxorubicin-equivalent iv
[8] = 200 μg/mouse, tumors about 25% of body weight
[9] = 30 min exposure, 0.1 to 10 μg/well doxorubicin-equivalent, survivors counted at 24 hours
[10] = 5 μg/mouse/week iv, t test, p<0.0001

In the case of CNGRC, the “effect of coinjected free peptide on homing of CDCRGDCFC phage” value (breast tumor [1]) is reported as “did not inhibit” and the “effect of co-injected peptide on accumulation of NGR phage in breast carcinoma xenografts” value (breast tumor [1]) is reported as “inhibited”.
For CNGRCVSGCAGRC, the “tumor homing of phage/peptide” value [2] was “also homed in vivo to a melanoma and to a Kaposi's sarcoma, but not to nontumor tissues”.
With CGSLVRC the “effect of coadministered free peptide on homing of CGSLVRC phage” value (breast tumor [1]; mouse, in vivo) was “inhibited”.
For GRGESP [reference compound], the “effect of coinjected free peptide on amount of RGD phage in the tumor” value (breast tumor [1]; 500 μg free peptide coinjected with phage expressing […]) was “essentially had no effect”.
For CLSGSLSC, the “tumor homing of phage/peptide” value [2] was “also homed to a breast tumor and to Kaposi's sarcoma” and the “share of the clones sequenced” value (B16B15b mouse melanoma) was 52%.
In the case of “doxorubicin/GACVFSIAHECGA: doxorubicin conjugated to the non-tumor homing control peptide GACVFSIAHECGA (SEQ ID NO: 19) (cysteine pairing not given here; also: doxorubicin conjugate) [reference compound]”, the “gross examination of tumors (skin ulceration, tumor necrosis)” value (from here on “gross examination of tumors”) [3] is reported as “no such signs were observed”, the “results as compared to dox control groups” value [3, 7] is reported as “not significantly different” and the “effect on tumor growth” value [3] is reported as “essentially no effect on tumor growth”. The cell death [4] was “cell death was present only in the cultures treated with the doxorubicin/[…]” and the cell killing [4] was “the cells were killed by all of the treatments”.
With ACDCRGDCFCG the “effect of coinjected free peptide on amount of RGD phage in the tumor” value (breast tumor [1]; 500 μg free peptide coinjected with phage expressing CDCRGDCFC) was “reduced the amount of phage in the tumor by about tenfold”.
For `COc1cccc2c1C(=O)c1c(O)c3c(c(O)c1C2=O)C[C@@](O)(C(=O)CO)C[C@@H]3O[C@H]1C[C@H](N)[C@H](O)[C@H](C)O1` [doxorubicin, reference compound], the “time to death after treatment” value [5, 8] was ≤ 48 h, the “gross examination of tumors” value [3] was “no such signs were observed” and the “effect on tumor growth” value [3] was “essentially no effect on tumor growth”. For the same molecule, the cell death [4, 9] was “cell death was present only in the cultures treated with the doxorubicin/[…]” and the cell killing [4] was “the cells were killed by all of the treatments”.
With “doxorubicin/CDCRGDCFC: doxorubicin coupled by EDC/NHS to the tumor homing peptide CDCRGDCFC (SEQ ID NO: 1) (cysteine pairing not given here; also: doxorubicin conjugate via EDC/NHS, site not given here)” the survival after treatment [5, 8] was “survived for longer than one week”, the “gross examination of tumors” value [3] was “marked skin ulceration and tumor necrosis” and the survival [3, 7] was “survived beyond the time when the dox control and conjugate control mice had died”. The “tumor size compared with control groups” value [3, 7] was “significantly smaller tumors”, the “pulmonary metastasis vs dox control” value [3, 10] was “a lower incidence of pulmonary metastasis and fewer metastatic lesions” and the “spread to regional lymph nodes vs dox control” value [3, 10] was “less spread to regional lymph nodes”. The “histopathological analysis of tumor vasculature” value ([3]; compared to the dox control group) was “pronounced destruction of the vasculature in the tumors”, the “time remaining alive after dox control and conjugate control mice had died” value ([3]; dose escalation, 30 μg/mouse every three weeks for three cycles) was “more than 6 months” and the cell death [4, 9] was “cell death was present”. The cell killing [4] was “the cells were killed by all of the treatments” and the “viability of tumor cells, fold less than after free doxorubicin” value (breast tumor [6]) was “about 3 fold”.
In the case of WGTGLC, the “share of the clones sequenced” value (B16B15b mouse melanoma) is reported as 25%.
With “doxorubicin/CNGRC (cysteine pairing not given here; also: doxorubicin conjugate)” the “toxicity relative to free doxorubicin” value ([5]; mouse, in vivo) was “less toxic than free doxorubicin”, the survival [3, 7] was “marked effect on survival” and the “tumor size compared with control groups” value [3, 7] was “significantly smaller”. The “effect on tumor growth” value [3] was “almost completely suppressed tumor growth”.
In the case of CDCRGDCFC, the “binding to human αv-integrins” value (human αv-integrins) is listed as “binds to human αv-integrins”, the “effect of coinjected free peptide on homing of CDCRGDCFC phage” value (breast tumor [1]) is listed as “greatly reduced tumor homing of the RGD phage” and the “amount needed to inhibit homing of NGR phage relative to CNGRC peptide” value (breast tumor [1]; higher than that of the CNGRC peptide) is listed as 5 to 10 fold. For the same molecule, the “effect of co-injected peptide on accumulation of NGR phage in breast carcinoma xenografts” value (breast tumor [1]) was “partially inhibited”.
